In brackets after ≈: the same amount, converted by molar mass.
Experiments:
[1] = tested on: pSer473 of PKB/Akt in SKOV3 cells; test: In Cell Western cellular PI3K signaling and IC50 determination; type: cell-based; details: Homo sapiens, SK-OV-3; SKOV3 cells; 2 or 3 independent measurements; read-out: IC50 pPKB (S473) SKOV3
Description: Protein phosphorylation was detected as follows: pSer473 of PKB/Akt with rabbit polyclonal antibody from Cell Signaling Technology (CST) (#4058) by In-Cell Western assays, where 1.2×10^4 SKOV3 cells/well in 96-well plates were plated (Cell Carrier, PerkinElmer) for 24 hours (37° C., 5% CO2), as described in Ref. ^25.

PBS solubility = type: physicochemical; details: aqueous buffer, pH 7.4, 3 independent measurements
[2] = Intrinsic reactivity of the inhibitors (kchem) with βME measured with HPLC; type: physicochemical; details: 1 mM inhibitor + 600 mM βME, n = 3
p110α (PI3Kα) = p110α (PI3Kα) (Homo sapiens, UniProt P42336); test: Determination of kinetic constants (kinact, Ki) for p110α by LanthaScreen Technology; type: binding; details: for Ki: dissociation constant of the first reversible binding, read-out: Ki PI3Kα; for Ki / kinact: global fitting with KinTek; for kinact: maximum potential rate of covalent bond formation, read-out: kinact PI3Kα; for kinact/KI: read-out: kinact/Ki PI3Kα
p110α (PI3Kα), sequence (P42336 whole entry): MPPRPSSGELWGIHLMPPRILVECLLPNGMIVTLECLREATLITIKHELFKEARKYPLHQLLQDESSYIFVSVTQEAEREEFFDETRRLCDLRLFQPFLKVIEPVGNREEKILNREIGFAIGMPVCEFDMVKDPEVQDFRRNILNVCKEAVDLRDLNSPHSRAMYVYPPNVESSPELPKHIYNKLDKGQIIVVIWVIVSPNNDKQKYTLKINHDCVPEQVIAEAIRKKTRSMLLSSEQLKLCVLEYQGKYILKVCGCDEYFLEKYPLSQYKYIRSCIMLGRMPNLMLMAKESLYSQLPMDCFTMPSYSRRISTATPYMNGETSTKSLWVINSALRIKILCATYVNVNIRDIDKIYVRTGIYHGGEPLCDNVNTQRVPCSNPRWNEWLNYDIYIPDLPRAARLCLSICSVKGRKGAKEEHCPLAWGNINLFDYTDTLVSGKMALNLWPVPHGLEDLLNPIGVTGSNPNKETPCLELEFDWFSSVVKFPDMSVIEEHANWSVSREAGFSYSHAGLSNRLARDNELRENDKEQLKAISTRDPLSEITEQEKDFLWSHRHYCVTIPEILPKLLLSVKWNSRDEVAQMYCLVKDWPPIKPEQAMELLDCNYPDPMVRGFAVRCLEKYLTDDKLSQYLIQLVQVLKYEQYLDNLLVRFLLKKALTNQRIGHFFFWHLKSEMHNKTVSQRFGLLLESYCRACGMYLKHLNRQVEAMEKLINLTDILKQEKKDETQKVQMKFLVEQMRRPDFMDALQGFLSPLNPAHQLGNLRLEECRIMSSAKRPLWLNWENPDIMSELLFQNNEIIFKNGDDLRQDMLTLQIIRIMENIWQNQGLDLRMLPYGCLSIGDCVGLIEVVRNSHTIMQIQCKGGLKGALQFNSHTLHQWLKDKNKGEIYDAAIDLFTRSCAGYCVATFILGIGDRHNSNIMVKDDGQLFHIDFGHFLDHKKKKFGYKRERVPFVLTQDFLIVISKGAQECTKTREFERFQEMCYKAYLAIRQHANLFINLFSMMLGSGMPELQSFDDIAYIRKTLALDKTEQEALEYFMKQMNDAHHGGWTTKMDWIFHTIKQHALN
p110α (PI3Kα), sequence (P27986 whole entry partner): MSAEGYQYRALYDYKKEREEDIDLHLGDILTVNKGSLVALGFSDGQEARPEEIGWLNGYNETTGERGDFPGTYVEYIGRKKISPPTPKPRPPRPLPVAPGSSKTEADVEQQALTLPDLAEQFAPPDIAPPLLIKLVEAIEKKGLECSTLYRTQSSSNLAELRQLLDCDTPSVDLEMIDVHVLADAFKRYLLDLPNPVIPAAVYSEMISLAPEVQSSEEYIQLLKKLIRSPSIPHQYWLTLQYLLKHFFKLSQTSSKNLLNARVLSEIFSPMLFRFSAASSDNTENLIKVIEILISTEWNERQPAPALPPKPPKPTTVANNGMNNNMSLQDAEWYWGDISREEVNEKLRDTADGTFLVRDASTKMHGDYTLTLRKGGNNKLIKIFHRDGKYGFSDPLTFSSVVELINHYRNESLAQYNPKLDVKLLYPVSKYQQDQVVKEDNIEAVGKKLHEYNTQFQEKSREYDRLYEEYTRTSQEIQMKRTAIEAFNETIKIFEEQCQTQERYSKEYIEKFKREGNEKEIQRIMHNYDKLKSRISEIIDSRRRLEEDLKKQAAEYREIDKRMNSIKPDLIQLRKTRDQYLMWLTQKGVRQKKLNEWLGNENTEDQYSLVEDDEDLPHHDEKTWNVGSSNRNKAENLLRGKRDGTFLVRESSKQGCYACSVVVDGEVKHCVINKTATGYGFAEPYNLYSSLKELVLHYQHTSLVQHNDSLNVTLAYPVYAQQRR

Experimental LogD = type: physicochemical; details: pH 7.4; 3 independent measurements

| IC50 [1] [nM] | solubility (PBS solubility) [µM] | Ki (p110α (PI3Kα)) [nM] | kinact (p110α (PI3Kα)) [s⁻¹] | kinact/KI (p110α (PI3Kα)) [M⁻¹ s⁻¹] | logD (Experimental LogD) | SMILES | kchem (intrinsic reactivity of the inhibitors) [2] [M⁻¹ s⁻¹] |
| --- | --- | --- | --- | --- | --- | --- | --- |
| 43 | 46 (≈ 29.8 µg/mL) | 10.5 | 0.00015 | 14300 | 2.66 | C=CC(=O)N1CCC(Cc2cccc(C(=O)N3CCN(c4nc(-c5cnc(N)nc5C(F)F)nc(N5CCOCC5)n4)CC3)c2)CC1 [Compound 101, 1-(4-(3-(4-(4-(2-amino-4-(difluoromethyl)pyrimidin-5-yl)-6-morpholino-1,3,5-triazin-2-yl)piperazine-1-carbonyl)benzyl)piperidin-1-yl)prop-2-en-1-one] | 0.00029 |
| 82 | 393 (≈ 236 µg/mL) | 16.2 | 0.000187 | 11600 | 1.4 | C=CC(=O)N1CCC(C(=O)NCCN2CCN(c3nc(-c4cnc(N)nc4C(F)F)nc(N4CCOCC4)n3)CC2)CC1 [Compound 62, 1-acryloyl-N-(2-(4-(4-(2-amino-4-(difluoromethyl)pyrimidin-5-yl)-6-morpholino-1,3,5-triazin-2-yl)piperazin-1-yl)ethyl)piperidine-4-carboxamide] | 0.000518 |
| – | 381 (≈ 230 µg/mL) | – | – | – | 1.7 | C=CC(=O)N1CCC(COCC(=O)N2CCN(c3nc(-c4cnc(N)nc4C(F)F)nc(N4CCOCC4)n3)CC2)CC1 [Compound 61, 1-(4-((2-(4-(4-(2-amino-4-(difluoromethyl)pyrimidin-5-yl)-6-morpholino-1,3,5-triazin-2-yl)piperazin-1-yl)-2-oxoethoxy)methyl)piperidin-1-yl)prop-2-en-1-one] | 0.00029 |

Further lines, the molecule ahead of its results:

| SMILES | IC50 [1] [nM] | solubility (PBS solubility) [µM] | Ki (p110α (PI3Kα)) [nM] | kinact (p110α (PI3Kα)) [s⁻¹] | kinact/KI (p110α (PI3Kα)) [M⁻¹ s⁻¹] | logD (Experimental LogD) | kchem (intrinsic reactivity of the inhibitors) [2] [M⁻¹ s⁻¹] |
| --- | --- | --- | --- | --- | --- | --- | --- |
| C=CC(=O)N1CCC(CCCC(=O)N2CCN(c3nc(-c4cnc(N)nc4C(F)F)nc(N4CCOCC4)n3)CC2)CC1 [Compound 41, 4-(1-acryloylpiperidin-4-yl)-1-(4-(4-(2-amino-4-(difluoromethyl)pyrimidin-5-yl)-6-morpholino-1,3,5-triazin-2-yl)piperazin-1-yl)butan-1-one] | – | 243 (≈ 146 µg/mL) | – | – | – | 2.67 | 0.000225 |
| CC(C)=CC(=O)CCC(=O)N1CCN(Cc2cc3nc(-c4cccc5[nH]ncc45)nc(N4CCOCC4)c3s2)CC1 [CNX-1351, 1-[4-[[2-(1H-indazol-4-yl)-4-(4-morpholinyl)thieno[3,2-d]pyrimidin-6-yl]methyl]-1-piperazinyl]-6-methyl-5-heptene-1,4-dione, reference compound] | – | 10 (≈ 5.74 µg/mL) | – | – | – | 3.96 | 0.000222 |
| C=CC(=O)N1CCC(C(=O)NCCCC(=O)N2CCN(c3nc(-c4cnc(N)nc4C(F)F)nc(N4CCOCC4)n3)CC2)CC1 [Compound 51, 1-acryloyl-N-(4-(4-(4-(2-amino-4-(difluoromethyl)pyrimidin-5-yl)-6-morpholino-1,3,5-triazin-2-yl)piperazin-1-yl)-4-oxobutyl)piperidine-4-carboxamide] | 686 | – | 10.7 | 0.000195 | 18800 | – | 0.000437 |

From patent publication US20240217960A1, “TRIAZINE DERIVATIVE AS COVALENT INHIBITORS OF PI3K” (UNIVERSITÄT BASEL, priority 2021, published 2024)
